The source of these data is article PMC8047747 (ACS Omega, 2021).

One may read the IC50 as the concentration at which inhibition is half-maximal. High values mean a need for much substance, low ones inhibition by little substance.

Data set [1] in a line: in vitro. To be noted: mouse.
Data set [2] has as its system Mycobacterium tuberculosis H37Rv (ATCC27294). As to the kind of experiment: microbe, parasite or virus in culture. In kind it is cell-based.
Data set [3] deals with mouse macrophage RAW 264.7 cells.
Data set [4] has as its system M. tuberculosis H37Rv nutrient-starved culture. In kind it is cell-based, Mycobacterium tuberculosis.
Where [5] appears, read: Mycobacterium tuberculosis, ATCC27294|H37RV.
[6] abbreviates: RAW 264.7 cells, 50 μg/mL, 48 hr, MTT.

Converted amounts (≈) assume the structure as drawn. Read-outs that look alike come from different tables or passages of the source. A value given as a limit tells only on which side of the number the result lay.

The compound `O=[N+]([O-])c1ccc(S(=O)(=O)N2CCN(C(c3ccccc3)c3ccccc3)CC2)c([N+](=O)[O-])c1` [7a, 1-Benzhydryl-4-((2,4-dinitrophenyl)sulfonyl)piperazine] came in with a half-maximal inhibitory concentration (IC50) in data set [1] of over 50 mg/L. For the same compound, the MIC came to 1.56 mg/L (≈ 3.23 µM) in data set [2] (Mtb H37Rv, repeated in Table 2) and 1.56 mg/L (≈ 3.23 µM) in data set [2] (setting [5]). Moreover, the “% cell inhibition at 50 μg/mL” value in data set [3] (setting [6]) was found to be 57.6%.
In turn, `O=C(CCCNS(=O)(=O)c1ccc([N+](=O)[O-])cc1[N+](=O)[O-])N1CCN(C(c2ccc(F)cc2)c2ccc(F)cc2)CC1` [7aa, N-(4-(4-(Bis(4-fluorophenyl)methyl)piperazin-1-yl)-4-oxobutyl)-2,4-dinitrobenzene Sulfonamide] returned an IC50 in data set [1] of over 50 mg/L. Moreover, the MIC in data set [2] (Mtb H37Rv, repeated in Table 2) turned out to be 0.78 mg/L (≈ 1.29 µM); in data set [2] (setting [5]), 0.78 mg/L (≈ 1.29 µM). In data set [3] (setting [6]), the “% cell inhibition at 50 μg/mL” value is on record as 59.2%.
Compound `O=[N+]([O-])c1ccccc1S(=O)(=O)N1CCN(C(c2ccccc2)c2ccccc2)CC1` [7b, 1-Benzhydryl-4-((2-nitrophenyl)sulfonyl)piperazine] yielded an MIC in data set [2] (setting [5]) of over 25 mg/L.
In data set [2] (setting [5]), `O=[N+]([O-])c1ccc(S(=O)(=O)N2CCN(C(c3ccccc3)c3ccccc3)CC2)cc1` [7c, 1-Benzhydryl-4-((4-nitrophenyl)sulfonyl)piperazine] had an MIC of over 25 mg/L.
In turn, `O=[N+]([O-])c1ccc(S(=O)(=O)N2CCN(C(c3ccc(F)cc3)c3ccc(F)cc3)CC2)c([N+](=O)[O-])c1` [7d, 1-(Bis(4-fluorophenyl)methyl)-4-((2,4-dinitrophenyl)sulfonyl)piperazine] showed an MIC in data set [2] (setting [5]) of over 25 mg/L.
In the case of `O=[N+]([O-])c1ccccc1S(=O)(=O)N1CCN(C(c2ccc(F)cc2)c2ccc(F)cc2)CC1` [7e, 1-(Bis(4-fluorophenyl)methyl)-4-((2-nitrophenyl)sulfonyl)piperazine], the MIC in data set [2] (setting [5]) is over 25 mg/L.
In data set [2] (setting [5]), `O=[N+]([O-])c1ccc(S(=O)(=O)N2CCN(C(c3ccc(F)cc3)c3ccc(F)cc3)CC2)cc1` [7f, 1-(Bis(4-fluorophenyl)methyl)-4-((4-nitrophenyl)sulfonyl)piperazine] showed an MIC of over 25 mg/L.
Consider `O=C(CNS(=O)(=O)c1ccc([N+](=O)[O-])cc1[N+](=O)[O-])N1CCN(C(c2ccccc2)c2ccccc2)CC1` [7g, N-(2-(4-Benzhydrylpiperazin-1-yl)-2-oxoethyl)-2,4-dinitrobenzenesulfonamide], for which, in data set [2] (setting [5]), the MIC worked out at 12.5 mg/L (≈ 23.2 µM).
Take `O=C(CCNS(=O)(=O)c1ccc([N+](=O)[O-])cc1[N+](=O)[O-])N1CCN(C(c2ccccc2)c2ccccc2)CC1` [7k, N-(3-(4-Benzhydrylpiperazin-1-yl)-3-oxopropyl)-2,4-dinitrobenzenesulfonamide]: the half-inhibitory concentration (IC50) in data set [1] was over 50 mg/L. The MIC stood at 0.78 mg/L (≈ 1.41 µM) in data set [2] (Mtb H37Rv, repeated in Table 2) and 0.78 mg/L (≈ 1.41 µM) in data set [2] (setting [5]). The “% cell inhibition at 50 μg/mL” value in data set [3] (setting [6]) is on record as 61.4%.
With `O=C(CCNS(=O)(=O)c1ccc([N+](=O)[O-])cc1[N+](=O)[O-])N1CCN(C(c2ccc(F)cc2)c2ccc(F)cc2)CC1` [7l, N-(3-(4-(Bis(4-fluorophenyl)methyl)piperazin-1-yl)-3-oxopropyl)-2,4-dinitrobenzene Sulfonamide], the concentration for half-maximal inhibition (IC50) in data set [1] is over 50 mg/L. The MIC was determined as 0.78 mg/L (≈ 1.32 µM) in data set [2] (Mtb H37Rv, repeated in Table 2) and 0.78 mg/L (≈ 1.32 µM) in data set [2] (setting [5]). In addition, in data set [3] (setting [6]), the “% cell inhibition at 50 μg/mL” value was 60.2%.
`O=C(C1CCN(S(=O)(=O)c2ccc([N+](=O)[O-])cc2[N+](=O)[O-])CC1)N1CCN(C(c2ccccc2)c2ccccc2)CC1` [7o, (4-Benzhydrylpiperazin-1-yl) (1-((2,4-dinitrophenyl)sulfonyl)piperidin-4-yl)methanone]: in data set [1], the half-maximal inhibitory concentration (IC50) is over 50 mg/L. The MIC in data set [2] (Mtb H37Rv, repeated in Table 2) stood at 0.78 mg/L (≈ 1.31 µM); in data set [2] (setting [5]), 0.78 mg/L (≈ 1.31 µM). In addition, the “% cell inhibition at 50 μg/mL” value in data set [3] (setting [6]) turned out to be 57.2%.
Consider `O=C(C1CCN(S(=O)(=O)c2ccccc2[N+](=O)[O-])CC1)N1CCN(C(c2ccccc2)c2ccccc2)CC1` [7p, (4-Benzhydrylpiperazin-1-yl) (1-((2-Nitrophenyl)sulfonyl)piperidin-4-yl)methanone], for which the MIC in data set [2] (setting [5]) is over 25 mg/L.
Still for that read-out and setting: to `O=C(C1CCN(S(=O)(=O)c2ccc([N+](=O)[O-])cc2)CC1)N1CCN(C(c2ccccc2)c2ccccc2)CC1` [7q, (4-Benzhydrylpiperazin-1-yl) (1-((4-Nitrophenyl)sulfonyl)piperidin-4-yl)methanone] belongs over 25 mg/L.
For `O=C(C1CCN(S(=O)(=O)c2ccc([N+](=O)[O-])cc2[N+](=O)[O-])CC1)N1CCN(C(c2ccc(F)cc2)c2ccc(F)cc2)CC1` [7r, (4-(Bis(4-fluorophenyl)methyl)piperazin-1-yl) (1-((2,4-Nitrophenyl)sulfonyl)piperidin-4-yl)methanone], in data set [4], the “nutrient starvation (log reduction)” value stood at 2.2 folds. The compound further displayed an MIC in data set [2] of 1.56 mg/L (≈ 2.48 µM). In addition, in data set [3], the “% cell inhibition at 50 μg/mL” value is 57.2% and the IC50 approximation was over 50 mg/L.
On to `O=C(C1CCCN(S(=O)(=O)c2ccc([N+](=O)[O-])cc2[N+](=O)[O-])C1)N1CCN(C(c2ccccc2)c2ccccc2)CC1` (stereo not shown) [7s, (4-Benzhydrylpiperazin-1-yl) (1-((2,4-Dinitrophenyl)sulfonyl)piperidin-3-yl)methanone], for which, in data set [1], the IC50 is over 50 mg/L. In addition, the MIC in data set [2] (Mtb H37Rv, repeated in Table 2) is 0.78 mg/L (≈ 1.31 µM); in data set [2] (setting [5]), 0.78 mg/L (≈ 1.31 µM). Further, in data set [3] (setting [6]), the “% cell inhibition at 50 μg/mL” value was determined as 59.2%.
Consider `O=C(C1CCCN(S(=O)(=O)c2ccccc2[N+](=O)[O-])C1)N1CCN(C(c2ccccc2)c2ccccc2)CC1` (stereo not shown) [7t, (4-Benzhydrylpiperazin-1-yl) (1-((2-Nitrophenyl)sulfonyl)piperidin-3-yl)methanone], for which the MIC in data set [2] (setting [5]) is over 25 mg/L.
In the case of `O=C(C1CCCN(S(=O)(=O)c2ccc([N+](=O)[O-])cc2)C1)N1CCN(C(c2ccccc2)c2ccccc2)CC1` (stereo not shown) [7u, (4-Benzhydrylpiperazin-1-yl) (1-((4-Nitrophenyl)sulfonyl)piperidin-3-yl)methanone], in data set [2] (setting [5]), the MIC was over 25 mg/L.
Take `O=C(C1CCCN(S(=O)(=O)c2ccc([N+](=O)[O-])cc2[N+](=O)[O-])C1)N1CCN(C(c2ccc(F)cc2)c2ccc(F)cc2)CC1` (stereo not shown) [7v, (4-(Bis(4-fluorophenyl)methyl)piperazin-1-yl) (1-((2,4-Dinitrophenyl)sulfonyl)piperidin-3-yl)methanone]: the 50% inhibitory concentration (IC50) in data set [1] was over 50 mg/L. Moreover, the MIC in data set [2] (Mtb H37Rv, repeated in Table 2) was 0.78 mg/L (≈ 1.24 µM); in data set [2] (setting [5]), 0.78 mg/L (≈ 1.24 µM). In addition, in data set [3] (setting [6]), the “% cell inhibition at 50 μg/mL” value amounted to 55.7%.
In data set [1], `O=C(C1CCN(S(=O)(=O)c2ccc([N+](=O)[O-])cc2[N+](=O)[O-])C1)N1CCN(C(c2ccccc2)c2ccccc2)CC1` (stereo not shown) [7y, (4-Benzhydrylpiperazin-1-yl) (1-((2,4-Dinitrophenyl)sulfonyl)pyrrolidin-3-yl)methanone] gave a concentration for half-maximal inhibition (IC50) of over 50 mg/L. Besides, the MIC in data set [2] (Mtb H37Rv, repeated in Table 2) came out at 0.78 mg/L (≈ 1.35 µM); in data set [2] (setting [5]), 0.78 mg/L (≈ 1.35 µM). Moreover, the “% cell inhibition at 50 μg/mL” value in data set [3] (setting [6]) turned out to be 59.6%.
For the compound `CC[C@@H](CO)NCCN[C@@H](CC)CO` [Ethambutol, reference compound], the MIC in data set [2] (setting [5]) was determined as 1.56 mg/L (≈ 7.64 µM).
In turn, `NNC(=O)c1ccncc1` [Isoniazid, reference compound] yielded an IC50 in data set [1] of over 25 mg/L. In data set [2] (Mtb H37Rv, repeated in Table 2), the MIC came out at 0.05 mg/L (≈ 0.365 µM). The “% cell inhibition at 50 μg/mL” value in data set [3] (setting [6]) is given as 97%.
As for `CO[C@H]1/C=C/O[C@@]2(C)Oc3c(C)c(O)c4c(O)c(c(/C=N/N5CCN(C)CC5)c(O)c4c3C2=O)NC(=O)/C(C)=C\C=C\[C@H](C)[C@H](O)[C@@H](C)[C@@H](O)[C@@H](C)[C@H](OC(C)=O)[C@@H]1C` [Rifampicin, reference compound], in data set [1], the IC50 was over 25 mg/L. The MIC came out at 0.10 mg/L (≈ 0.122 µM) in data set [2] (Mtb H37Rv strain, triplicate, Table 1 and text); 0.1 mg/L (≈ 0.122 µM) in data set [2] (Mtb H37Rv, repeated in Table 2); 0.1 mg/L (≈ 0.122 µM) in data set [2] (setting [5]). Moreover, the “% cell inhibition at 50 μg/mL” value in data set [3] (setting [6]) was 90%.
